According to ChEMBL document CHEMBL1158345, “Fragment and knowledge-based design of selective GSK-3beta inhibitors using virtual screening models” (Eur J Med Chem, 2009):

Target: Glycogen synthase kinase-3 beta (Homo sapiens, UniProt P49841)
Sequence (P49841 whole entry): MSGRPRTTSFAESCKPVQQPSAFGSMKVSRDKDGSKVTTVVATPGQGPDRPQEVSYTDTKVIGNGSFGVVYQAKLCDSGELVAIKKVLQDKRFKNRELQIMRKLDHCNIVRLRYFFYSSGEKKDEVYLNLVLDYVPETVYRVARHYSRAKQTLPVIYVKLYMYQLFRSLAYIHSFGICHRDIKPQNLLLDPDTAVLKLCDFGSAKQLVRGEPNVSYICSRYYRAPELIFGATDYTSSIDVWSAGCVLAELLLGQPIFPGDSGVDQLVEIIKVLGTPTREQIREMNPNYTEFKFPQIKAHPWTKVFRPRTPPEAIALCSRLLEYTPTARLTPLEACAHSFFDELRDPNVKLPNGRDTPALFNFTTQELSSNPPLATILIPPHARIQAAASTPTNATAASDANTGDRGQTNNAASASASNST
Description: Inhibition of human GSK3-beta

Row | Ki | IC50 | SMILES
1 | 0.09 nM | – | O=[N+]([O-])c1ccc(NCCNc2ncc(-c3ncc[nH]3)c(-c3ccc(Cl)cc3Cl)n2)nc1
2 | – | 160 nM | Cn1cc(-c2cc(-c3nc4ccccc4[nH]3)c(=O)[nH]n2)ccc1=O
3 | – | 0.14 nM | COc1cc(C2=C(c3cn(CCN4CCN(C)CC4)c4ccccc34)C(=O)NC2=O)c2occc2c1
4 | – | 2400 nM | Nc1nc(Nc2ccccc2)sc1C(=O)C1CC1
5 | – | 7 nM | Cn1cc(C2=C(c3cc(Cl)ccc3Cl)C(=O)NC2=O)c2ccccc21
6 | – | 2.8 nM | Cn1cc(C2=C(c3cn(CCCSC(=N)N)c4ccccc34)C(=O)NC2=O)c2ccccc21 [BISINDOLYLMALEIMIDE IX]
